According to patent US20260159500A1, “KINESIN KIF18A INHIBITOR AND USE THEREOF” (SHANGHAI APEIRON THERAPEUTICS COMPANY LIMITED, priority 2022, published 2026):

Key:
OVCAR3 cells = test: Cell proliferation activity test in OVCAR3 cells (CyQUANT Direct); assay type: cell-based; conditions: Homo sapiens, OVCAR-3, 72 h, 3 days incubation, CyQUANT fluorescence detection, read-out: OVCAR-3_IC50_nM
Procedure: OVCAR3 cells were purchased from Nanjing Cobioer Biosciences Co., Ltd. RPMI-1640 medium, fetal bovine serum, and the CyQUANT Direct Cell Proliferation Assay kit were purchased from Thermo Fisher Scientific, USA; 96-well cell culture plates were sourced from Corning, USA.
Culture OVCAR3 cells with RPMI-1640 medium containing 10% fetal bovine serum and incubate them in a 5% CO2 incubator at 37° C. Only cells in the logarithmic growth phase can be used for the test.
Inoculate OVCAR3 cells into a 96-well cell culture plate at 90 μL per well and incubate overnight in a 5% CO2 incubator at 37° C. Dissolve the compound powder in DMSO to prepare a stock solution of 10 mM. Then perform gradient dilution for the compounds in the microplate to achieve a final concentration of 0-10 μM. Add 10 μL of cell culture medium containing compounds to each well to make the final DMSO content 0.2%. Incubate the cell plates in a 5% CO2 incubator at 37° C. for 3 days. Add 100 μL of CyQUANT detection reagent to each well, react at 37° C. for 60 min, and perform fluorescence detection using the PerkinElmer Envision.

HT29 cells = test: CyQuant cell proliferation activity test in HT29 cells; assay type: cell-based; conditions: Homo sapiens, HT-29, 72 h, 2000 cells per well, 3 days incubation, IC50 by XLFIT, read-out: HT29_IC50_nM
Procedure: HT29 cells were purchased from Nanjing Cobioer Biosciences Co., Ltd.; RPMI-1640 medium, fetal bovine serum, Trypsin-EDTA (0.25%), 96-well plates, and CyQuant reagents were purchased from ThermoFisher (USA); DMSO was purchased from SIGMA (USA).
Culture HT29 cells with RPMI-1640 containing 10% fetal bovine serum under the condition of 37° C. and 5% CO2. Only cells in the logarithmic growth phase can be used for the test.
Use the CyQuant reagent to detect the proliferation inhibitory activity of compounds on HT29 cells. Adjust the cell density and inoculate 100 μL per well into the 96-well plate (HT29 at 2000 cells per well), then incubate overnight under the condition of 37° C. and 5% CO2. Add compounds of various target concentrations (initial concentration of 3000 nM, 3-fold dilution, 9 concentration gradients), and make the DMSO content 0.2%. Incubate the cell plates at 37° C. and 5% CO2 for 3 days. Incubate with CyQuant reagent for 1 h, read the plate by Envision, and calculate IC50 using XLFIT.

[1] = molecular target: T1, Human KIF18A (amino acid sequence 1-417) (Homo sapiens, UniProt Q8NI77); test: Enzymatic activity test (ADP-Glo, microtubule-stimulated KIF18A ATPase); assay type: biochemical; conditions: 60 μg/mL microtubules, 25 μM ATP, 2.5 nM KIF18A protein, 120 min at ambient temperature, read-out: KIF18A_nM
T1 construct: purchased Viva Biotech (Shanghai) Ltd
T1 sequence (Q8NI77 1-417): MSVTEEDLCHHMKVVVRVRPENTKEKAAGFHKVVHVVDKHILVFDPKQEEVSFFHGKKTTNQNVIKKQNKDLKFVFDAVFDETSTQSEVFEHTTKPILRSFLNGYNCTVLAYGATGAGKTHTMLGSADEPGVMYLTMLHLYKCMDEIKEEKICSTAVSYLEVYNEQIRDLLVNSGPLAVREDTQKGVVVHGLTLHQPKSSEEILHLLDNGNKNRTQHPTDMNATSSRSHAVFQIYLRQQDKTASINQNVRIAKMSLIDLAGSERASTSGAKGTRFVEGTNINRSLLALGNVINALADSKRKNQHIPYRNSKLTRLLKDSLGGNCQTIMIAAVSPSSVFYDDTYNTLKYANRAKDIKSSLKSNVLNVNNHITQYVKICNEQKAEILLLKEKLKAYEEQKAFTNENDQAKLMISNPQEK
Procedure: Human KIF18A (amino acid sequence 1-417) was purchased from Viva Biotech (Shanghai) Ltd.; the ADP-Glo™ protein kinase kit was acquired from Promega, USA; tubulin was sourced from Cytoskeleton, USA; and the 384-well assay plate and Envision multifunctional microplate reader were obtained from PerkinElmer, USA.
Dissolve the compound powder in DMSO to prepare a stock solution of 10 mM. Then perform gradient dilution for the compounds in the microplate to achieve a final concentration of 0-10 μM. Then, add 2.5 μL each of tubulin, compound, ATP, and KIF18A protein to the microplate in sequence for reaction at ambient temperature for 120 min. The final concentrations in the enzyme reaction are 60 μg/mL for microtubules, 25 μM for ATP, and 2.5 nM for KIF18A protein. After the enzyme reaction, add 10 μL of ADP-GLO reaction reagent to each well and incubate at ambient temperature for 30 min. After that, add 20 μL of detection reagent to each well and incubate at ambient temperature for 30 min in the dark. Finally, perform chemiluminescence detection using the PerkinElmer Envision.

| Structure (SMILES) | IC50 (OVCAR3 cells) [nM] | IC50 (HT29 cells) [nM] | IC50 [1] [nM] |
| --- | --- | --- | --- |
| O=C(Nc1cc(N2CCC(F)(F)CC2)c2nc(O)ccc2c1)c1ccc(NS(=O)(=O)CCO)cc1N1CCC2(CC1)CC2 [Example 66] | 35 | 80 | 23 |
| O=C(Nc1cn2ncnc2c(N2CCC(F)(F)CC2)n1)c1ccc(NS(=O)(=O)CCO)cc1N1CCC2(CC1)CC2 [Example 16] | 33 | 56 | 29 |
| O=C(Nc1cc2ncnn2c(N2CCC(F)(F)CC2)n1)c1cc(F)c(NS(=O)(=O)CCO)cc1N1CCC2(CC1)CC2 [Example 25, (2-(6-azaspiro[2.5]oct-6-yl)-5-fluoro-4-{[(2-hydroxyethyl)sulphonyl]amino}phenyl)-N-[5-(4,4-difluoropiperidinyl)(4-hydro-1,2,4-triazolo[4,3-e]pyrimidin-7-yl)]formamide] | 46 | 84 | 5 |
| Cc1ccc2cc(NC(=O)c3ccc(NS(=O)(=O)CCO)cc3N3CCC4(CC3)CC4)cc(N3CCC(F)(F)CC3)c2n1 [Example 64] | 76 | 82 | 116 |
| Cc1nc2c(N3CCC(F)(F)CC3)nc(NC(=O)c3ccc(NS(=O)(=O)CCO)cc3N3CCC4(CC3)CC4)cn2c1C [Example 15] | 71 | 97 | 205 |
| CN1Cc2nc(NC(=O)c3ccc(NS(=O)(=O)CCO)cc3N3CCC4(CC3)CC4)nc(N3CCC(F)(F)CC3)c2C1 [Example 8, N-(4-(4,4-difluoropiperidin-1-yl)-6-methyl-6,7-dihydro-5H-pyrrolo[3,4-d]pyrimidin-2-yl)-4-(2-hydroxyethylsulfonamido)-2-(6-azaspiro[2.5]octan-6-yl)benzamide] | > 3000 | > 3000 | 280 |
| Cc1ccc2cc(NC(=O)c3ccc(NS(=O)(=O)CCO)cc3N3CCC4(CC3)CC4)nc(N3CCC(F)(F)CC3)c2n1 [Example 51, N-(8-(4,4-difluoropiperidin-1-yl)-2-methyl-1,7-naphthyridin-6-yl)-4-(2-hydroxyethylsulfonamido)-2-(6-azaspiro[2.5]octan-6-yl)benzamide] | 385 | 387 | 455 |
| Cc1ncc2c(N3CCC(F)(F)CC3)nc(NC(=O)c3ccc(NS(=O)(=O)CCO)cc3N3CCC4(CC3)CC4)cn12 [Example 12, N-(8-(4,4-difluoropiperidin-1-yl)-3-methylimidazo[1,5-a]pyrazin-6-yl)-4-(2-hydroxyethylsulfonamido)-2-(6-azaspiro[2.5]octan-6-yl)benzamide] | 80 | 102 | 80 |
| Cc1cnc2c(N3CCC(F)(F)CC3)c(F)c(NC(=O)c3ccc(NS(=O)(=O)CCO)cc3N3CCC4(CC3)CC4)cc2c1 [Example 90, 2-{6-azaspiro[2.5]octan-6-yl}-N-[8-(4,4-difluoropiperidin-1-yl)-7-fluoro-3-methylquinolin-6-yl]-4-(2-hydroxyethanesulfonamido)benzamide] | 96 | 106 | 341 |
| C[C@H](CO)S(=O)(=O)Nc1ccc(C(=O)Nc2cc3cccnc3c(N3CCC(F)(F)CC3)c2F)c(N2CCC3(CC2)CC3)c1 [Example 98, 2-{6-azaspiro[2.5]octan-6-yl}-N-[8-(4,4-difluoropiperidin-1-yl)-7-fluoroquinolin-6-yl]-4-[(2R)-1-hydroxypropane-2-sulfonamido]benzamide] | 17 | 21 | 166 |
| O=C(Nc1cn2nccc2c(N2CCC(F)(F)CC2)n1)c1ccc(NS(=O)(=O)CCO)cc1N1CCC2(CC1)CC2 [Example 17] | 20 | 30 | 28 |
| CC1OCc2c1cc(NC(=O)c1ccc(NS(=O)(=O)CCO)cc1N1CCC3(CC1)CC3)nc2N1CCC(F)(F)CC1 (stereo not drawn) [Example 9, N-(4-(4,4-difluoropiperidin-1-yl)-1-methyl-1,3-dihydrofuro[3,4-c]pyridin-6-yl)-4-((2-hydroxyethyl)sulfonamido)-2-(6-azaspiro[2.5]octan-6-yl)benzamide] | 55 | 37 | 49 |
| O=C(Nc1nc2c(c(N3CCC(F)(F)CC3)n1)COC2)c1ccc(NS(=O)(=O)CCO)cc1N1CCC2(CC1)CC2 [Example 4, N-(4-(4,4-difluoropiperidin-1-yl)-5,7-dihydrofuro[3,4-d]pyrimidin-2-yl)-4-(2-hydroxyethylsulfonamido)-2-(6-azaspiro[2.5]octan-6-yl)benzamide] | 1350 | 2020 | 29 |

Compounds with a lower IC50 (OVCAR3 cells), results first:

| IC50 (OVCAR3 cells) [nM] | IC50 (HT29 cells) [nM] | IC50 [1] [nM] | Structure (SMILES) |
| --- | --- | --- | --- |
| 13 | 12 | 28 | Nc1cc2cc(NC(=O)c3ccc(NS(=O)(=O)CCO)cc3N3CCC4(CC3)CC4)nc(N3CCC(F)(F)CC3)c2nn1 [Example 62, N-[3-amino-8-(4,4-difluoropiperidin-1-yl)pyrido[3,4-c]pyridazin-6-yl]-2-{6-azaspiro[2.5]octan-6-yl}-4-(2-hydroxyethanesulfonamido)benzamide] |
| 11.3 | 17 | 153 | C[C@H](CO)S(=O)(=O)Nc1ccc(C(=O)Nc2cc3cccnc3c(N3CCC(F)(F)CC3)n2)c(N2CCC3(CC2)CC3)c1 [Example 96, 2-{6-Azaspiro[2.5]octan-6-yl}-N-[8-(4,4-difluoropiperidin-1-yl)-1,7-naphthyridin-6-yl]-4-[(2R)-1-hydroxypropane-2-sulfonamido]benzamide] |
| 11 | 15 | 35 | O=C(Nc1cc(N2CCC(F)(F)CC2)c2ncccc2c1)c1ccc(NS(=O)(=O)CCO)cc1N1CCC2(CC1)CC2 [Example 63] |
| 11 | 12 | 24 | O=C(Nc1ccc(NS(=O)(=O)CCO)cc1N1CCC2(CC1)CC2)c1cc(N2CCC(F)(F)CC2)c2ncccc2c1 [Example 100, N-(2-{6-azaspiro[2.5]octan-6-yl}-4-(2-hydroxyethanesulfonamido)phenyl)-8-(4,4-difluoropiperidin-1-yl)quinoline-6-carboxamide] |
| 7 | 17 | 213 | Nc1nc2c(N3CCC(F)(F)CC3)c(F)c(NC(=O)c3ccc(NS(=O)(=O)CCO)cc3N3CCC4(CC3)CC4)cc2s1 [Example 42, N-[2-amino-4-(4,4-difluoropiperidin-1-yl)-5-fluoro-1,3-benzothiazol-6-yl]-2-{6-azaspiro[2.5]octan-6-yl}-4-(2-hydroxyethanesulfonamido)benzamide] |
| 7 | 13 | 53 | Nc1ccc2cc(NC(=O)c3ccc(NS(=O)(=O)CCO)cc3N3CCC4(CC3)CC4)cc(N3CCC(F)(F)CC3)c2n1 [Example 67] |
| 6 | 18 | 27 | O=C(Nc1cc2ccc(O)nc2c(N2CCC(F)(F)CC2)n1)c1ccc(NS(=O)(=O)CCO)cc1N1CCC2(CC1)CC2 [Example 54, 2-{6-azaspiro[2.5]octan-6-yl}-N-[8-(4,4-difluoropiperidin-1-yl)-2-hydroxy-1,7-naphthyridin-6-yl]-4-(2-hydroxyethanesulfonamido)benzamide] |
